Experimental data as given in paper PMC4122355, “Inhibitor of the Tyrosine Phosphatase STEP Reverses Cognitive Deficits in a Mouse Model of Alzheimer's Disease” (PLoS Biology, 2014).

Legend:
PTP1B = target: T1, PTP1B (Homo sapiens, UniProt P18031); assay: Selectivity pNPP assay, full-length PTPs: PTP1B; format: biochemical; conditions: full-length PTP, 10 nM, 500 µM pNPP
T1 construct: GST (N); host or cells: E. coli BL21 (DE3)
T1 sequence (P18031 1-435): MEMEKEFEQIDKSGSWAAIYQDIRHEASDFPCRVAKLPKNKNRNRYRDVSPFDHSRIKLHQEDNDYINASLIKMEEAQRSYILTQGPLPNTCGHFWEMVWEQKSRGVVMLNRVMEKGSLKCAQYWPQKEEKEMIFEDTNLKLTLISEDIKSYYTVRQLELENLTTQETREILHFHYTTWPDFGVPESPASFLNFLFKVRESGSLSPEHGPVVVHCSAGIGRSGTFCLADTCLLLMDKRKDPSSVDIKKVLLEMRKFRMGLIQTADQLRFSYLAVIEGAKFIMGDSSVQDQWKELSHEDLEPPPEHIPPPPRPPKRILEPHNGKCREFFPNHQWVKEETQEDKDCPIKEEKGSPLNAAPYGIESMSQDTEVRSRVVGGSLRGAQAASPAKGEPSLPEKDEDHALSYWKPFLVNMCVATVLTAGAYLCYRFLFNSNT
Description: (§1) Constructs were transformed into BL21 (DE3) E. coli cells. Fusion proteins were purified on a glutathione sepharose column.

[1] = tested on: GluN2B Y1472, Pyk2 Y402, ERK1/2 Y204/187 in WT and STEP KO cortical neurons; assay: Tyr phosphorylation of STEP substrates in WT and STEP KO mouse cortical cultures; format: cell-based; conditions: 1 h
Procedure: Primary cortical neurons were isolated from Sprague Dawley rat embryos (E18) (Charles River Laboratories, Wilmington, MA) as previously described. In some experiments, cortical neurons were made from WT and STEP KO mouse embryos (E18). Neurons were allowed to grow for 18–21 d in CO2 incubator before addition of compounds at indicated doses for 1 h. Immediately following treatments, neurons were lysed in RadioImmuno Precipitation Assay (RIPA) buffer supplied with protease inhibitor cocktail (Roche Applied Science, Indianapolis, IN) and phosphatase inhibitors (NaF and Na3VO4). All experiments were replicated four times with four independent batches of cultures.
Samples were prepared and resolved by SDS-PAGE, transferred to nitrocellulose membrane, and incubated with phospho-specific antibodies (anti-pY^204/187 ERK1/2, anti-pY^402 Pyk2, anti-pY^1472 GluN2B) or total protein antibodies (anti-ERK2, anti-Pyk2, and anti-NR2B) overnight at 4°C. Immunoreactivity was visualized using a Chemiluminescent substrate kit (Pierce Biotechnology, Rockford, IL) and detected using a G:BOX with the image program GeneSnap (Syngene, Cambridge, UK). All densitometric quantifications were performed using the Genetools program.

[2] = tested on: GluN2B (Y1472), Pyk2 (Y402), ERK1/2 (Y204/187) in cortex; assay: Tyr phosphorylation of STEP substrates in cortex of WT mice after i.p. injection; format: in vivo, mouse; conditions: C57BL/6 mice, 10 mg/kg i.p., 3 h postinjection, relative to vehicle
Procedure: Wild-type, male C57BL/6 mice (3–6 mo) were used for all studies. […] Cortical tissues were dissected out 3 h postinjection and processed for subcellular fractionation. […] Homogenates were centrifuged at 800 × g to remove nuclei and large debris (P1). Synaptosomal fractions (P2) were prepared from S1 by centrifugation at 9,200 × g for 15 min. The P2 pellet was washed twice and was resuspended in TEVP buffer. […] Samples were prepared and resolved by SDS-PAGE, transferred to nitrocellulose membrane, and incubated with phospho-specific antibodies (anti-pY^204/187 ERK1/2, anti-pY^402 Pyk2, anti-pY^1472 GluN2B) or total protein antibodies (anti-ERK2, anti-Pyk2, and anti-NR2B) overnight at 4°C. Immunoreactivity was visualized using a Chemiluminescent substrate kit (Pierce Biotechnology, Rockford, IL) and detected using a G:BOX with the image program GeneSnap (Syngene, Cambridge, UK). All densitometric quantifications were performed using the Genetools program.

[3] = cited from earlier work
3xTg-AD and WT mice = assay: Novel object recognition (NOR) task; format: in vivo, mouse; conditions: 10 mg/kg i.p.
Procedure: Mice were first habituated to the task by allowing them to explore an empty white open field box (60 cm×60 cm) for 5 min. […] After the elapsed time, the mice completed the sample phase in which they were placed into the open field box with two identical objects located in the right and left corners. Mice were allowed to freely explore until they had accumulated a total of 30 s of object exploration (i.e., contact with the object with the nose and/or front paws), at which point the trial ended. The time spent with each object was recorded. Mice that were unable to complete the 30 s exploration within 20 min during the sample phase were excluded from the study (WT = 1 and AD = 3). Twenty-four hours later, mice completed the choice phase that was conducted in an identical manner to the sample phase except that one of the objects was substituted by a novel object and trial duration was set at 5 min. No drug treatments were given during the choice phase. Fifteen WT mice from the initial cohort were used to optimize the novel object conditions (to identify object pairings of inherent equal interest). Location of the novel object (left or right side) was counterbalanced to minimize possible bias. […] The DI was calculated for each subject by using the following formula: DI = (time spent exploring novel object – time spent exploring familiar object)/(total time spent exploring both objects). […]

HePTP = target: T2, HePTP (Homo sapiens, UniProt P35236); assay: Selectivity pNPP assay, full-length PTPs: HePTP; format: biochemical; conditions: full-length PTP, 10 nM, 500 µM pNPP
T2 construct: Full-length HePTP and PTP-SL proteins were purchased from Abnova; purchased Abnova (Taipei, Taiwan)
T2 sequence (P35236 1-360): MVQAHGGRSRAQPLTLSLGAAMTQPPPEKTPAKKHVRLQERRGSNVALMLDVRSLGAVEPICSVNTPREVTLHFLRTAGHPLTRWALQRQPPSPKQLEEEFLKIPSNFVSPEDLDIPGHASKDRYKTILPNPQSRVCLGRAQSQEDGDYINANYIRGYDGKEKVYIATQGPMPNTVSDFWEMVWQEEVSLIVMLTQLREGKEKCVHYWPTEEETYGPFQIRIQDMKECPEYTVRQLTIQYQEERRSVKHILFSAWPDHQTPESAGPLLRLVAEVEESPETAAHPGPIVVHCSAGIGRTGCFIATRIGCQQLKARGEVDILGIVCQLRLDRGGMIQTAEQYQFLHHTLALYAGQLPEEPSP
Description: as §1

SMILES: Cl.Nc1cc(C(F)(F)F)cc2c1SSSSS2 [TC-2153, 8-(trifluoromethyl)-1,2,3,4,5-benzopentathiepin-6-amine hydrochloride]
- IC50 (PTP1B): 723.9 ± 1.2 nM
- Tyr phosphorylation of STEP substrates in STEP KO cortical cultures ([1]; STEP KO cultures, TC-2153 0.1 and 1 µM, Na3VO4 1 mM): failed to increase the phosphorylation of STEP substrates
- Tyr phosphorylation of STEP substrates in WT mouse cortical neurons ([1]; WT cultures, 0.1 and 1 µM): an increase in the Tyr phosphorylation of STEP substrates
- pERK1/2 in cortex (P2 fraction) [2]: 2.52±0.16
- pGluN2B in cortex (P2 fraction) [2]: 1.66±0.28
- pPyk2 in cortex (P2 fraction) [2]: 1.80±0.30
- LD50 (acute toxicity) [3]: > 1,000 mg/kg
- NOR memory in 12-mo-old AD mice (3xTg-AD and WT mice; 12-mo-old 3xTg-AD mice, familiar versus novel p<0.05): significant improvement of memory
- NOR cognitive function in 12-mo-old WT mice (3xTg-AD and WT mice; WT mice, 12 mo cohort): did not affect cognitive function
- IC50 (HePTP): 363.5 ± 1.2 nM
